This is an account of results in patent EP0026410A1, “Combinations of active ingredients, their preparation and use, as well as pharmaceutical preparations” (F. HOFFMANN-LA ROCHE & CO. Aktiengesellschaft, priority 1979, dated 1981).

The subject of one test is Serratia marcescens. The experiment in a line: In vitro M.I.C. of Nocardicin A, peptide and mixtures against Serratia marcescens. In kind it is cell-based.
Test [1] has as its system Pseudomonas aeruginosa. As to the kind of experiment: In vitro M.I.C. of Nocardicin A, peptide and their mixtures against Pseudomonas aeruginosa strains. The test is classed as cell-based.
In another test the test system is Proteus vulgaris. As to the kind of experiment: In vitro M.I.C. of Nocardicin A, peptide and mixtures against Proteus vulgaris. The test is classed as cell-based.
The subject of a further test is Ps. aeruginosa. The experiment in a line: In vivo activity in Pseudomonas septicaemia of mice. Details: species or system Mäusen. As to conditions: sc, 5 h. The source says: Die in vivo Aktivitäten der erfindungsgemässen Kombinationen wurden mittels Pseudomonas-Septikämien an Mäusen getestet, wobei die Verabreichung eine Stunde, 3 Stunden -und 5 Stunden nach intraperitonealer Infektion erfolgte. Die Ergebnisse, die mit (1R)-1-(L-Norvalylamino)-ethylphosphonsäure und Nocardicin A erreicht wurden, sind in der folgenden Tabelle VI zusammengefasst.

The next test has as its system P. rettgeri. The experiment in a line: In vitro M.I.C. of Nocardicin A, peptide and mixtures against Proteus species. In kind it is cell-based. As to conditions: Providencia rettgeri; P. rettgeri Stamm 503010; substance alone.
A further test relates to P. mirabilis. Described as above. The test is classed as cell-based.
Test [2] has as its system Pseudomonas aeruginosa. The experiment in a line: Microtiter checkerboard method, M.I.C. after 18 h incubation. The following applies: for MIC: Pseudomonas aeruginosa. The test is classed as cell-based. As to the method:
Die in vitro Aktivität der erfindungsgemässen Kombinationen kann auch nach der Mikrotiter-Schachbrett-Methode gezeigt werden. Bei dieser Methode werden Filter-sterilisierte Grundlösungen von Verbindungen I und einem Nocardicin-Antibiotikum hergestellt, die 4,8mal so konzentriert sind wie die zu testenden Lösungen. Aliquote Teile des Kulturmediums (50 ul)wurden in alle 12 (1-12) x 8 (A-H) Löcher der Mikrotiter-Platte gegeben, mit Ausnahme des Loches 12H. Jeweils 50 µl der Peptid-Lösung wurden dann in jedes Loch der zwölften Reihe gegeben und 100 µl in das Loch 12H. Die peptidhaltigen Lösungen wurden dann innerhalb der Reihen A-H dadurch verdünnt, dass man jeweils 50 µl aus der Reihe 12 in die Reihe 11 übertrug, gut vermischte, und wieder jeweils 50 µl in die Reihe 10 übertrug und dieses Prozedere bis zur Reihe 2 wiederholte, so dass die Reihe 1 ausgelassen wurde. Dann wurden je 50 µl einer Lösung eines Nocardicin-Antibiotikums in jedes Loch der Reihe H gegeben und ebenfalls in der vorstehend beschriebenen Weise verdünnt innerhalb der Reihen 1-12, wobei das letzte Loch in jeder Reihe wiederum ausgelassen wurde. Nachdem die Volumina überall durch Zusatz von 50 ul Nährflüssigkeit auf 100 µl gebracht wurden, wurden jeweils 20 µl einer 1/1000 Verdünnung einer über Nacht angesetzten Kultur eines Testorganismus zugesetzt. Durch Schütteln wurde für eine gleichmässige Verteilung gesorgt, woraufhin die Platten mit Klebstreifen verschlossen wurden. Die minimalen Hemmkonzentrationen wurden als diejenigen minimalen Konzentrationen bestimmt, die nach 18-stündiger Inkubation der Kulturen eine sichtbare Trübung verhinderten. Die Ergebnisse mit (1R)-1-(L-Norvalylamino)-ethylphosphonsäure und Nocardicin D sind in der Tabelle V zusammengestellt.

The next test deals with P. morganii. As to the kind of experiment: In vitro M.I.C. of Nocardicin A, peptide and mixtures against Proteus species. In kind it is cell-based. As to conditions: Morganella morganii; P. morganii Stamm 501041; substance alone.
Setting [3] is: Tabelle IV, S. marcescens (strain not named), substance alone.
Where [4] appears, read: Tabelle IV, Ps. aeruginosa (strain not named), substance alone.
Where [5] appears, read: Tabelle IV, P. vulgaris (strain not named), substance alone.
[6] abbreviates: ATCC14756, S. marcescens Stamm ATCC 14756, substance alone.
The mark [7] stands for this setting: S. marcescens Stamm 542007, substance alone.
[8] abbreviates: S. marcescens Stamm 542010, substance alone.
The mark [9] stands for this setting: S. marcescens Stamm 542012, substance alone.
[10] abbreviates: S. marcescens Stamm 542017, substance alone.
Setting [11] is: P. mirabilis Stamm 502010, substance alone.
[12] abbreviates: P. mirabilis Stamm 502012, substance alone.
Where [13] appears, read: P. mirabilis Stamm 502015, substance alone.
Setting [14] is: P. mirabilis Stamm 502038, substance alone.
[15] abbreviates: NCTC2099, Stamm NCTC 2099, substance alone.
[16] abbreviates: NCTC2100, Stamm NCTC 2100, substance alone.
Where [17] appears, read: Stamm NC1B 8295, substance alone.
[18] abbreviates: P. vulgaris Stamm 505030, substance alone.
[19] abbreviates: P. vulgaris Stamm 505031, substance alone.

Values after ≈ are worked out from the molar mass of the structure shown. Read-outs that look alike come from different tables or passages of the source. Some results are limits rather than exact numbers.

One may read the MIC as the least concentration at which growth counts as inhibited. Turning to `CCC[C@H](N)C(=O)NCP(=O)(O)O` [1-(L-Norvalylamino)-methylphosphonsäure], the MIC was 4 µg/mL (≈ 19 µM) with Serratia marcescens (setting [3]), more than 128 µg/mL with Pseudomonas aeruginosa [1] (setting [4]) and 45.2 µg/mL (≈ 215 µM) in the test on Proteus vulgaris (setting [5]).

As to `CCC[C@H](N)C(=O)N[C@@H](C)P(=O)(O)O` [(1R)-1-(L-Norvalylamino)-ethylphosphonsäure], the minimum inhibitory concentration (MIC) in the test on Serratia marcescens (setting [6]) stood at 1 µg/mL (≈ 4.46 µM); in the test with Serratia marcescens (setting [7]) it was 1 µg/mL (≈ 4.46 µM); in the test on Serratia marcescens (setting [8]), 1 µg/mL (≈ 4.46 µM); in the test on Serratia marcescens (setting [9]) it was 1 µg/mL (≈ 4.46 µM); in the test on Serratia marcescens (setting [10]), 1 µg/mL (≈ 4.46 µM); in the test on P. rettgeri, 4 µg/mL (≈ 17.8 µM). Moreover, the MIC in the test on P. mirabilis (setting [11]) was 22.6 µg/mL (≈ 101 µM); with P. mirabilis (setting [12]), 22.6 µg/mL (≈ 101 µM); with P. mirabilis (setting [13]), 22.6 µg/mL (≈ 101 µM); in the test with P. mirabilis (setting [14]), 22.6 µg/mL (≈ 101 µM); with Pseudomonas aeruginosa [1] (setting [15]) it was 256 µg/mL (≈ 1140 µM); in the test with Pseudomonas aeruginosa [1] (setting [16]), more than 256 µg/mL. Further, the MIC in the test on Pseudomonas aeruginosa [1] (Stamm 511004, substance alone) was more than 256 µg/mL; with Pseudomonas aeruginosa [1] (Stamm 511005, substance alone), 4 µg/mL (≈ 17.8 µM); in the test on Pseudomonas aeruginosa [1] (Stamm 511007, substance alone), more than 256 µg/mL; with Pseudomonas aeruginosa [1] (Stamm 511012, substance alone), more than 256 µg/mL; with Pseudomonas aeruginosa [1] (Stamm 511015, substance alone), 128 µg/mL (≈ 571 µM); in the test with Pseudomonas aeruginosa [1] (Stamm 511016, substance alone), 32 µg/mL (≈ 143 µM). Besides, the MIC was more than 256 µg/mL with Pseudomonas aeruginosa [1] (Stamm 511019, substance alone); more than 256 µg/mL in the test on Pseudomonas aeruginosa [1] (Stamm 511026, substance alone); 45 µg/mL (≈ 201 µM) with Pseudomonas aeruginosa [1] (Stamm 511027, substance alone); more than 256 µg/mL in the test with Pseudomonas aeruginosa [1] (Stamm 511028, substance alone); more than 256 µg/mL with Pseudomonas aeruginosa [1] (Stamm 511029, substance alone); 256 µg/mL (≈ 1140 µM) with Pseudomonas aeruginosa [1] (Stamm 511030, substance alone). Also, the MIC with Pseudomonas aeruginosa [1] (Stamm 511032, substance alone) amounted to 256 µg/mL (≈ 1140 µM); with Pseudomonas aeruginosa [1] (Stamm 511033, substance alone) it was 256 µg/mL (≈ 1140 µM); in the test on Pseudomonas aeruginosa [1] (Stamm 511036, substance alone) it was 256 µg/mL (≈ 1140 µM); in the test on Pseudomonas aeruginosa [1] (Stamm 511038, substance alone), 256 µg/mL (≈ 1140 µM); with Pseudomonas aeruginosa [1] (Stamm 511041, substance alone), 256 µg/mL (≈ 1140 µM); in the test with Pseudomonas aeruginosa [1] (setting [17]), 64 µg/mL (≈ 285 µM). In addition, the MIC is more than 256 µg/mL in the test with Pseudomonas aeruginosa [2] (Stamm 511019, substance alone); 64 µg/mL with Pseudomonas aeruginosa [2] (Stamm 511027, substance alone); 256 µg/mL with Pseudomonas aeruginosa [2] (Stamm 511030, substance alone); 64 µg/mL (≈ 285 µM) with P. morganii; 5.7 µg/mL (≈ 25.4 µM) with Proteus vulgaris (setting [18]); 8 µg/mL (≈ 35.7 µM) with Proteus vulgaris (setting [19]). Also, the ED50 in the test with Ps. aeruginosa (read-out: CD50, Ps. aeruginosa 143724, s.c. 3 x (1, 3, 5 h after i.p. infection), substance alone) is more than 200 mg/kg; in the test with Ps. aeruginosa (read-out: CD50, Ps. aeruginosa 143811, s.c. 3 x (1, 3, 5 h after i.p. infection), substance alone), more than 200 mg/kg; in the test on Ps. aeruginosa (read-out: CD50, Ps. aeruginosa BA, s.c. 3 x (1, 3, 5 h after i.p. infection), substance alone) it was more than 200 mg/kg; in the test with Ps. aeruginosa (read-out: CD50, Ps. aeruginosa M 7801, s.c. 3 x (1, 3, 5 h after i.p. infection), substance alone), 135 mg/kg.

As to `N[C@H](CCOc1ccc(/C(=N/O)C(=O)N[C@H]2CN([C@@H](C(=O)O)c3ccc(O)cc3)C2=O)cc1)C(=O)O` [Nocardicin A], the MIC with Serratia marcescens (setting [6]) is 8 µg/mL (≈ 16 µM); in the test on Serratia marcescens (setting [7]) it was 11.3 µg/mL (≈ 22.6 µM); in the test with Serratia marcescens (setting [8]), 11.3 µg/mL (≈ 22.6 µM); in the test with Serratia marcescens (setting [9]), 8 µg/mL (≈ 16 µM); with Serratia marcescens (setting [10]) it was 16 µg/mL (≈ 32 µM); in the test with Serratia marcescens (setting [3]), 16 µg/mL (≈ 32 µM). Moreover, the minimum inhibitory concentration (MIC) came to 8 µg/mL (≈ 16 µM) in the test with P. rettgeri; 8 µg/mL (≈ 16 µM) with P. mirabilis (setting [11]); 8 µg/mL (≈ 16 µM) in the test with P. mirabilis (setting [12]); 4 µg/mL (≈ 7.99 µM) in the test on P. mirabilis (setting [13]); 32 µg/mL (≈ 63.9 µM) with P. mirabilis (setting [14]); 16 µg/mL (≈ 32 µM) in the test with Pseudomonas aeruginosa [1] (setting [15]). In addition, the MIC was determined as 32 µg/mL (≈ 63.9 µM) in the test with Pseudomonas aeruginosa [1] (setting [16]); 32 µg/mL (≈ 63.9 µM) in the test on Pseudomonas aeruginosa [1] (Stamm 511004, substance alone); 4 µg/mL (≈ 7.99 µM) in the test with Pseudomonas aeruginosa [1] (Stamm 511005, substance alone); 16 µg/mL (≈ 32 µM) in the test with Pseudomonas aeruginosa [1] (Stamm 511007, substance alone); 32 µg/mL (≈ 63.9 µM) in the test with Pseudomonas aeruginosa [1] (Stamm 511012, substance alone); 16 µg/mL (≈ 32 µM) in the test with Pseudomonas aeruginosa [1] (Stamm 511015, substance alone). Further, the minimum inhibitory concentration (MIC) with Pseudomonas aeruginosa [1] (Stamm 511016, substance alone) worked out at 64 µg/mL (≈ 128 µM); with Pseudomonas aeruginosa [1] (Stamm 511019, substance alone), 64 µg/mL (≈ 128 µM); in the test on Pseudomonas aeruginosa [1] (Stamm 511026, substance alone) it was 181 µg/mL (≈ 362 µM); in the test with Pseudomonas aeruginosa [1] (Stamm 511027, substance alone), 8 µg/mL (≈ 16 µM); in the test on Pseudomonas aeruginosa [1] (Stamm 511028, substance alone), 16 µg/mL (≈ 32 µM); with Pseudomonas aeruginosa [1] (Stamm 511029, substance alone), 256 µg/mL (≈ 512 µM). For the same compound, the minimal inhibitory concentration (MIC) in the test with Pseudomonas aeruginosa [1] (Stamm 511030, substance alone) stood at 16 µg/mL (≈ 32 µM); in the test with Pseudomonas aeruginosa [1] (Stamm 511032, substance alone) it was 32 µg/mL (≈ 63.9 µM); in the test with Pseudomonas aeruginosa [1] (Stamm 511033, substance alone), 32 µg/mL (≈ 63.9 µM); with Pseudomonas aeruginosa [1] (Stamm 511036, substance alone), 16 µg/mL (≈ 32 µM); in the test with Pseudomonas aeruginosa [1] (Stamm 511038, substance alone), 256 µg/mL (≈ 512 µM); in the test on Pseudomonas aeruginosa [1] (Stamm 511041, substance alone), 32 µg/mL (≈ 63.9 µM). Besides, the minimum inhibitory concentration (MIC) in the test with Pseudomonas aeruginosa [1] (setting [17]) was more than 256 µg/mL; in the test with Pseudomonas aeruginosa [1] (setting [4]), 8 µg/mL (≈ 16 µM); in the test with P. morganii, 8 µg/mL (≈ 16 µM); with Proteus vulgaris (setting [18]), 4 µg/mL (≈ 7.99 µM); in the test on Proteus vulgaris (setting [19]), 32 µg/mL (≈ 63.9 µM); in the test with Proteus vulgaris (setting [5]) it was 64 µg/mL (≈ 128 µM). Further, the ED50 in the test on Ps. aeruginosa (Ps. aeruginosa 143724, s.c. 3 x (1, 3, 5 h after i.p. infection), substance alone, read-out: CD50 (the source's name)) was more than 50 mg/kg; in the test on Ps. aeruginosa (Ps. aeruginosa 143811, s.c. 3 x (1, 3, 5 h after i.p. infection), substance alone, read-out: CD50 (the source's name)), more than 50 mg/kg; in the test on Ps. aeruginosa (Ps. aeruginosa BA, s.c. 3 x (1, 3, 5 h after i.p. infection), substance alone, read-out: CD50 (the source's name)), 43 mg/kg; in the test on Ps. aeruginosa (Ps. aeruginosa M 7801, s.c. 3 x (1, 3, 5 h after i.p. infection), substance alone, read-out: CD50 (the source's name)) it was more than 50 mg/kg.

As for `N[C@H](CCOc1ccc(C(=O)C(=O)N[C@H]2CN([C@@H](C(=O)O)c3ccc(O)cc3)C2=O)cc1)C(=O)O` [Nocardicin D], the M.I.C. with Pseudomonas aeruginosa [2] (Stamm 511019, substance alone) is more than 512 µg/mL; in the test on Pseudomonas aeruginosa [2] (Stamm 511027, substance alone), 512 µg/mL; in the test with Pseudomonas aeruginosa [2] (Stamm 511030, substance alone) it was 128 µg/mL.
